# Article PMC6804443 (Acta Pharmaceutica Sinica. B, 2019)
# “Also recorded” adds a separate entry of the source.
# Assays:
# CYP2C19 = CYP2C19 (Homo sapiens, UniProt P33261); assay: CYP2C19 inhibition by XueBiJing compounds, cDNA-expressed enzyme [CEC→CHC]; format: in vitro ADME
# OATP1B1 = OATP1B1 (Homo sapiens, UniProt Q9Y6L6); assay: OATP1B1 inhibition by XueBiJing compounds, transfected HEK293 cells [E217βG]; format: in vitro ADME
# UGT1A9 = biological target: T1, UGT1A9 (Homo sapiens, UniProt O60656); assay: UGT1A9 inhibition by XueBiJing compounds, cDNA-expressed enzyme [4-MU→4-MUG]; format: in vitro ADME
# T1 sequence (O60656 26-530): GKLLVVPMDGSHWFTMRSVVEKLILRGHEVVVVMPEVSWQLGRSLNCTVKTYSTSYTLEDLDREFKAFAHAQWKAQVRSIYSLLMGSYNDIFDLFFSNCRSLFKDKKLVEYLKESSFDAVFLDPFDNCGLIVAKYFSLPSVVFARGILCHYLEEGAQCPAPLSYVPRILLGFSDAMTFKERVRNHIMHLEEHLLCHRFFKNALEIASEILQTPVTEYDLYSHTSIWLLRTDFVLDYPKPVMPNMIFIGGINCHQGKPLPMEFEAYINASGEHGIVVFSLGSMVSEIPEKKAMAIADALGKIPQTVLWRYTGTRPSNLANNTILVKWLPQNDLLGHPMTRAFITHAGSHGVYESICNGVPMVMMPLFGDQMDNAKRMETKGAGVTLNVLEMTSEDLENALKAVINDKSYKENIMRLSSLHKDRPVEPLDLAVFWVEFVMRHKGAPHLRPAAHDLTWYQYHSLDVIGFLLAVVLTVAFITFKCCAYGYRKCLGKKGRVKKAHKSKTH
# CYP3A4 = conditions: higher concentrations; range over the named compounds and enzymes
# OAT3 = biological target: T2, OAT3 (Homo sapiens, UniProt Q8TCC7); format: in vitro ADME
# T2 sequence (Q8TCC7 1-542): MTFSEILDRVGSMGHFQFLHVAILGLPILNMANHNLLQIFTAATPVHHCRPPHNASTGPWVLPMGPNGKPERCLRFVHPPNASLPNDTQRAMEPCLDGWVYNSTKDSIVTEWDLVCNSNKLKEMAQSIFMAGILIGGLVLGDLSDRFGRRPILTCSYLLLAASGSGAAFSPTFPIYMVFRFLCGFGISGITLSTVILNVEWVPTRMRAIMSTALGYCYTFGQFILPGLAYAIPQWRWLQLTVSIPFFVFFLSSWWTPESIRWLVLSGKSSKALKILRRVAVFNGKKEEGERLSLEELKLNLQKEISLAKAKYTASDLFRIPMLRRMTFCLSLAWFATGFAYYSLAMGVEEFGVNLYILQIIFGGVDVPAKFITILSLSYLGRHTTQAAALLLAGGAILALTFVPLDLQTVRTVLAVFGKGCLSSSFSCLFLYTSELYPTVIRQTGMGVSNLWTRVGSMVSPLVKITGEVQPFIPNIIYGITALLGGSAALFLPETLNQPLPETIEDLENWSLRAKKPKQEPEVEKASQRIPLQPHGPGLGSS
# OATP1B3 [1] = biological target: T3, OATP1B3 (Homo sapiens, UniProt Q9NPD5)
# T3 sequence (Q9NPD5 1-702): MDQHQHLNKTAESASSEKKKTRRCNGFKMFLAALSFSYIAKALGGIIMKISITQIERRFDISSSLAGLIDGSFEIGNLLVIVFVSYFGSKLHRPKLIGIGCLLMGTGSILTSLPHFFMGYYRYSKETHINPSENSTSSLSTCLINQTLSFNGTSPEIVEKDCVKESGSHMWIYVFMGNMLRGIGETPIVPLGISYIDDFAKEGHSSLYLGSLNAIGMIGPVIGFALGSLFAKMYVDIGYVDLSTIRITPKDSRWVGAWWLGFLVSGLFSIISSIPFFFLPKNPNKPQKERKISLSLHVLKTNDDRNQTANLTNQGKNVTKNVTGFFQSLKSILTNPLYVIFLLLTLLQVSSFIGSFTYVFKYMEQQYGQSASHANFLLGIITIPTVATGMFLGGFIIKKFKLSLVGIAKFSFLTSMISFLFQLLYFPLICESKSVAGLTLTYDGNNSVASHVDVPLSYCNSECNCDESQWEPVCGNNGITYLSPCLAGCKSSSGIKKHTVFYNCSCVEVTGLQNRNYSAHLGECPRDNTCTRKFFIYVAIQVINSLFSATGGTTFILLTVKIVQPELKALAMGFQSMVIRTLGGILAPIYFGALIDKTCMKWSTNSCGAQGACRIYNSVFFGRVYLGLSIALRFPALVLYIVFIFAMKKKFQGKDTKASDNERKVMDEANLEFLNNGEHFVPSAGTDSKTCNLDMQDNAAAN
# [2] = test system: P450 enzymes, UGTs, SULTs, OATP1B1/1B3, OAT1/3, OCT2, MATE1/2-K, MDR1, BCRP; conditions: cited from earlier work
# OATP1B3 [3] = biological target: T3, OATP1B3; assay: in vitro; format: in vitro ADME
# CYP2C9 [4] = biological target: T4, CYP2C9 (Homo sapiens, UniProt P11712); format: in vitro ADME
# [5] = cited from earlier work
# [6] = XueBiJing compounds, cited from earlier work
# CYP2C9 [7] = biological target: T4, CYP2C9; assay: CYP2C9 inhibition by XueBiJing compounds, cDNA-expressed enzyme [MFC→HFC]; format: in vitro ADME
# CYP2B6 = CYP2B6 induction by XueBiJing compounds in cryopreserved human hepatocytes; format: in vitro ADME; conditions: higher concentrations; range over the named compounds and enzymes
# [8] = human, XueBiJing 100 mL via 75-min intravenous infusion
# T4 sequence (P11712 whole entry): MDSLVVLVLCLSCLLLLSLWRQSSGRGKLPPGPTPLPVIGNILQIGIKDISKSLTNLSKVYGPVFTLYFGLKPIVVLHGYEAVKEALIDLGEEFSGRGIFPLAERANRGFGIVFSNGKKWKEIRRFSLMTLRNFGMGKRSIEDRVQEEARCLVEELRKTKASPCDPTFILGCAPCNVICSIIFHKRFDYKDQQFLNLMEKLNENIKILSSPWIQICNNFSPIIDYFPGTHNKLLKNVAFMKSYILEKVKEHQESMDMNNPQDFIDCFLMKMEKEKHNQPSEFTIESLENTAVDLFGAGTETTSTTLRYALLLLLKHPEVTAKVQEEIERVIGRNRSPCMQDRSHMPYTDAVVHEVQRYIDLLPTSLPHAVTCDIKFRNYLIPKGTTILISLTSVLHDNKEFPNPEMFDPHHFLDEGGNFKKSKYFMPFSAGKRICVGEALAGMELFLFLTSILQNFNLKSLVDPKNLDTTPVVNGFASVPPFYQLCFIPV
# CYP2C19, sequence (P33261 whole entry): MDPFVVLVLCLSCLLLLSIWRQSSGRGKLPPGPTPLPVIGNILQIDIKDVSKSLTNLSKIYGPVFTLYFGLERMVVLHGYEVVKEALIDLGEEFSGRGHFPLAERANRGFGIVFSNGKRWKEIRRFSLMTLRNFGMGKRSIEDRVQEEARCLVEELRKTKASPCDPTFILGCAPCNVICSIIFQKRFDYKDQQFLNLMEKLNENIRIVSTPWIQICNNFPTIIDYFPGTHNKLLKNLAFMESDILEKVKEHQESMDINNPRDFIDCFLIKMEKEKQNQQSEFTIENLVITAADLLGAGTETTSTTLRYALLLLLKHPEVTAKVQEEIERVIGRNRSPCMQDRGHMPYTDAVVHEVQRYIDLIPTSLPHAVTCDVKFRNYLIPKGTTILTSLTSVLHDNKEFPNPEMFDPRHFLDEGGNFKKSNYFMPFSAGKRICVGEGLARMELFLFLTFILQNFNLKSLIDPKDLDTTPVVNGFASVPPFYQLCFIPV
# OATP1B1, sequence (Q9Y6L6 whole entry): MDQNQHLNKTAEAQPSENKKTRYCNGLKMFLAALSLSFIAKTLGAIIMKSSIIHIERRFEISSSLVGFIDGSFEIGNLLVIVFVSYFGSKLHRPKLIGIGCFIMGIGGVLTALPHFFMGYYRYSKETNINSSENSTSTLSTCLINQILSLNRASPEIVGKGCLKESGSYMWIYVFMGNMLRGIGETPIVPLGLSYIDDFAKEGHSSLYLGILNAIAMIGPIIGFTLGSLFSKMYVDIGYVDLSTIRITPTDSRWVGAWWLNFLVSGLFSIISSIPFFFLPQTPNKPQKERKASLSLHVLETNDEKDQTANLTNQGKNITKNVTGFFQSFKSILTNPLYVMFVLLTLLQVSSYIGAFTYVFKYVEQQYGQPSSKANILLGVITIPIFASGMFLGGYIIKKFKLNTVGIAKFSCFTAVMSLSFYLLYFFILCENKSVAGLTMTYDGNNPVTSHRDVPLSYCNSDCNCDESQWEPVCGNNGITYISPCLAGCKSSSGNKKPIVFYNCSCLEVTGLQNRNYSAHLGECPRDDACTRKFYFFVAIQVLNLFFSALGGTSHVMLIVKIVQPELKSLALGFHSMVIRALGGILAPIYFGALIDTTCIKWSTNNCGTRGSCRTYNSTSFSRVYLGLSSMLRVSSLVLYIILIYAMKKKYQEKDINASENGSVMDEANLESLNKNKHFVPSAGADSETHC
smiles,measurement,setting,value
"O=C(/C=C/c1ccc(O)c2c1[C@H](C(=O)O[C@H](Cc1ccc(O)c(O)c1)C(=O)O)[C@@H](c1ccc(O)c(O)c1)O2)O[C@H](Cc1ccc(O)c(O)c1)C(=O)O [X10, salvianolic acid B]",IC50,CYP2C19,19 ± 4 µM
same,inhibition at 100 μmol/L,"CYP2C19; human, cDNA-expressed CYP2C19, probe CEC (25 μmol/L)",68 to 80%
same,IC50,OATP1B1,38 ± 3 µM
same,IC50,UGT1A9,3 ± 1 µM
same,inhibition at 100 μmol/L,"UGT1A9; human, cDNA-expressed UGT1A9, probe 4-MU (10 μmol/L), 4-MUG formed",> 90%
same,"mRNA-T/U ratio, CYP3A4",CYP3A4,4.0 to 9.6
same,IC50,OAT3,31 ± 8 µM
same,IC50,OATP1B3 [1],18 ± 4 µM
same,Related metabolism and transport data (substrate status),[2],Highly selective OATP1B3 substrate; also recorded: COMT substrate
same,Km,OATP1B3 [3],14 µM
same,Time-dependent inhibition of CYP2C9,CYP2C9 [4],negligible
same,fu-p (unbound fraction in plasma),[5]; human plasma,3%
same,Cmax,[5]; [8],100 nM
same,VSS,[5]; [8],1.28 L/kg
same,t1/2,[5]; [8],12 min
same,Major elimination route,[5]; human,Hepatobiliary excretion; also recorded: Hepatic methylation
same,pKa,[6],2.8
same,LogD(7.4),[6]; pH 7.4,−2.8
same,IC50,CYP2C9 [7],75 ± 13 µM
same,inhibition at 100 μmol/L,"CYP2C9 [7]; human, cDNA-expressed CYP2C9, probe MFC (75 μmol/L)",68 to 80%
same,"mRNA-T/U ratio, CYP2B6",CYP2B6,4.0 to 9.6
